Non-standard residues stand in square brackets, D forms with d. Residues, ends and D or L forms follow the SMILES beside them. *: point of attachment. CH3O(CH2CH2O)11CH2CH2CO = COCCOCCOCCOCCOCCOCCOCCOCCOCCOCCOCCOCCC(=O)*; X1 = O=[N+]([O-])c1ccc(NCCN*)cc1; Cit = NC(=O)NCCC[C@H](N)C(=O)O
Tests used:
rat liver S9 extract = test: Digestion with rat liver S9 extract; assay type: biochemical; details: normalized to compound 23
Method: (§1) Proteolytic digestion experiments were carried out at a fixed substrate concentration (0.51 μmol) using liver lysosomal (enzyme) extract (0.45 μg/μL) in a 25 mM MES solution buffered to pH 5 containing 1% CHAPS and 1.8 mM DTT incubated at 37° C. Enzyme extract was activated in the presence of DTT for 15 minutes at 37° C. prior to addition of AENA labeled peptide substrates. At various time points, up to 26 h, 20 μL aliquots were removed and acidified to a pH of 3 with TFA. Analysis of fractions was performed using HPLC with a Aquasil C18 reverse-phase column (250×4.6, Thermofisher, Waltham, Mass.), monitored at 390 nm and 335 nm for AENA and EDANS respectively. Elution was performed with a gradient of acetonitrile and water buffered with 0.1% formic acid. Generation of unmodified reporter molecule was measured. To minimize freeze thaw cycles the lysosomal extract was dispensed into multiple aliquots prior to storage at −80° C. A new aliquot was employed for each study and used immediately upon thawing. Lysosomal extract was sourced from female Hans Wistar rats by differential density gradient centrifugation (Graham et al. 2000). Protein concentration of lysosomal extract was determined by standard BCA protein assay protocols. Compound 60 was used for normalization of velocity between experiments (Tables 2-4). […] Normalized sample velocity was calculated as: [(average compound 60 velocity[…]experimental compound 60 velocity)]×sample experimental velocity.
(§2) The observed rates of cleavage were not dependent on the source of proteolytic enzymes. The order of increasing velocity (23>30>37>42) was maintained when digested using commercially available rat and human liver S9 extract (Xenotech LLC, Lenexa, Kans.) (Table 5). Thus rates of cleavage are expected to be similar across different species and cell types.

human liver S9 extract = test: Digestion with human liver S9 extract; assay type: biochemical; details: normalized to compound 23
Method: as §1, §2

[1] = tested on: liver lysosomal (enzyme) extract; test: Digestion assay with rat liver lysosomal extract; assay type: biochemical; details: for Sample Velocity / Normalized Velocity: AENA substrates; for Sample Velocity: linear rate of reporter generation at <50% completion, pH 5, 37° C.; for Normalized Velocity: normalized with compound 60 velocity (average 123.8 nmol/h); for Relative Velocity, Lysosomal Extract: normalized to compound 23
Method: Various amino acid combinations, tetrapeptides, were used to link various first moieties (R^5) and an AENA report group second compound (R^6) to form assay substrates (substrates). Cleavage rate of the peptides were evaluated by analysis of digestion of the substrates in the presence of rat lysosomal extract.
Reporting groups were coupled to the C-terminus of the peptide substrates as described above for UV-vis monitoring to explore the influence of amino acid sequence on kinetics of peptide degradation by HPLC. N-(2-aminoethyl)-4-nitroaniline (AENA) or N-(aminoethyl)-5-napthylamine-1-sulfonic acid (EDANS) were used as reporting groups for HPLC monitoring as neither absorptivity nor lambda maximum were affected for either after cleavage from the peptide. The N-terminus of each peptide substrate was modified with either methoxy polyethylene glycol (PEG12) or N-acetyl galactosamine (NAG(OR)3) (FIG. 1).
Proteolytic digestion experiments were carried out at a fixed substrate concentration (0.51 μmol) using liver lysosomal (enzyme) extract (0.45 μg/μL) in a 25 mM MES solution buffered to pH 5 containing 1% CHAPS and 1.8 mM DTT incubated at 37° C. Enzyme extract was activated in the presence of DTT for 15 minutes at 37° C. prior to addition of AENA labeled peptide substrates. At various time points, up to 26 h, 20 μL aliquots were removed and acidified to a pH of 3 with TFA. Analysis of fractions was performed using HPLC with a Aquasil C18 reverse-phase column (250×4.6, Thermofisher, Waltham, Mass.), monitored at 390 nm and 335 nm for AENA and EDANS respectively. Elution was performed with a gradient of acetonitrile and water buffered with 0.1% formic acid. Generation of unmodified reporter molecule was measured. To minimize freeze thaw cycles the lysosomal extract was dispensed into multiple aliquots prior to storage at −80° C. A new aliquot was employed for each study and used immediately upon thawing. Lysosomal extract was sourced from female Hans Wistar rats by differential density gradient centrifugation (Graham et al. 2000). Protein concentration of lysosomal extract was determined by standard BCA protein assay protocols. […]
Rate (also called velocity of degradation or velocity) was extrapolated during early linear turnover (Table 2). As used herein, rate is defined as the linear rate of reporting group generation at less than 50% completion (digestion rate was assumed to be linear at less than 50% completion). For substrates in which cleavage deviated from consecutive first order kinetics, the percent of reporting group liberated at the endpoint of digestion was used as a metric for comparison.

Factor VII = test: Serum Factor VII activity after DPC-mediated siRNA delivery in mice; assay type: in vivo; details: for effectiveness as modifying agent in DPC-mediated siRNA delivery: Factor VII knockdown; for Relative F VII activity: polymer-siRNA conjugate modified with the PEG-peptide agent and CDM-NAG, 1 mg/kg polymer, 0.25 mg/kg siRNA, day 5
Method: PEG tetrapeptide modifying agents were synthesized by using a PEG group at R^5 and an activated ester at R^7 (formula V). Membrane active polyamines (see below) were modified with Factor VII siRNA, CDM-NAG and the indicated tetrapeptide (45b, 46) or tripeptide control (47) modifying agents as previously described (U.S. Pat. Nos. 8,137,695 and 8,426,554) to form a dynamic polyconjugate delivery polymer. 1 mg/kg polymer conjugated to 0.25 mg/kg siRNA was then injected into mice. At day 5, samples were collected and assayed for Factor VII. Knockdown of Factor VII requires cleavage of the modifying agent from the polyamine at a rate similar to the previously described CDM masking agents and dipeptide-PABC masking agents. […] For dynamic polyconjugate delivery polymers modified with PEG12 functionalized tetrapeptides, the order of increasing knockdown in vivo (45b>46>47) correlated with in vitro kinetic results. Validation of the in vitro model for kinetic evaluation was shown by the results obtained in animal studies.
Polyacrylate EAB in 5 mM pH 8.0 HEPES buffer was modified 1.5 wt % with a N-hydroxysuccinimidyl activated PEG4 azide (Azido-dPEG4-NHS ester from Quanta Biodesign) to provide azide groups for subsequent attachment of siRNA. The azide-modified polymer was then diluted to 5 mg/mL in 60 mg/mL HEPES base. To this solution was added 15 mg/mL (3 wt equivalents) of the indicated protease-cleavable PEG modifying reagents (the described herein tetrapeptide agents or PEG12-FCit-PABC-PNP (8426554) to modify 40-50% of available amine groups. After 1 h, DBCO-modified rodent factor VII siRNA (0.25 wt eq relative to polymer) was added to polymer solution. After incubation overnight, conjugates were further modified by addition of molar excess relative to available amine groups of an N-acetylgalactosamine derivative CDM-NAG, NAG-A^4-A^3-A^2-A^1-NHS or NAG-ACit-PABC-PNP (U.S. Pat. No. 8,426,554, Rozema et al. 2015, Carlson et al. 2015), and incubated for 30 min to reversibly modify remaining polymer EAB amines.
Male Wistar Han rats and female ICR mice, 6 to 8 weeks old, were obtained from Harlan Sprague-Dawley, (Indianapolis, Ind.). Animals were handled in accordance with animal used protocols approved by the Animal Care and Use Committee at Arrowhead Madison Inc. Rodents were maintained on a 12 hours light/dark cycle with free access to water and food (Harlan Teklad Rodent Diet, Harlan, Madison, Wis.). Animals were injected with 1 mg/kg polymer conjugated to 0.25 mg/kg siRNA. Samples were collected 5 days post injection.
FVII activity in serum was measured with a chromogenic method using a test kit (BIOPHEN VII, Aniara, Mason, Ohio) following manufacturer's recommendations. Absorbance of colorimetric development was measured using a Tecan Safire-2 microplate reader at 405 nm.

Row | Molecule | Relative Velocity, RAT S9 Extract (rat liver S9 extract) | Relative Velocity, HUMAN S9 Extract (human liver S9 extract) | Sample Velocity [1] [nmol/h] | Normalized Velocity [1] [nmol/h] | % Released at Endpoint (21 hr) [1] [%] | Relative Velocity, Lysosomal Extract [1] | effectiveness as modifying agent in DPC-mediated siRNA delivery (Factor VII) | Relative F VII activity (Factor VII)
1 | COCCOCCOCCOCCOCCOCCOCCOCCOCCOCCOCCOCCC(=O)N[C@@H](Cc1ccccc1)C(=O)N[C@@H](CCCNC(N)=O)C(=O)N[C@@H](Cc1ccccc1)C(=O)N1CCC[C@H]1C(=O)NCCNc1ccc([N+](=O)[O-])cc1 [Compound 23, PEG12-FCitFP-AENA] ({CH3O(CH2CH2O)11CH2CH2CO}-F[Cit]FP-X1) | 100.0 | 100.0 | – | – | – | – | – | –
2 | NAG(OAc)3-FCitAP- AENA [Compound 30] | 28.3 | 45.7 | 54.3 | 62.0 | 96.5 | 32.1 | – | –
3 | PEG-ACitAP-OSu [Compound 46] | – | – | – | – | – | – | effective modifying agents | 66 ± 28
4 | PEG-CitAP-OSu [Compound 47] | – | – | – | – | – | – | – | 97 ± 34
5 | PEG-FCitAP-OSu [Compound 45b] | – | – | – | – | – | – | effective modifying agents | 40 ± 06

The next lines start with results.

Row | Relative Velocity, RAT S9 Extract (rat liver S9 extract) | Relative Velocity, HUMAN S9 Extract (human liver S9 extract) | Sample Velocity [1] [nmol/h] | Normalized Velocity [1] [nmol/h] | % Released at Endpoint (21 hr) [1] [%] | Relative Velocity, Lysosomal Extract [1] | Molecule | effectiveness as modifying agent in DPC-mediated siRNA delivery (Factor VII) | Relative F VII activity (Factor VII)
6 | 0.6 | 1.7 | – | – | – | – | COCCOCCOCCOCCOCCOCCOCCOCCOCCOCCOCCOCCC(=O)N[C@@H](CCCNC(N)=O)C(=O)N[C@@H](C)C(=O)N1CCC[C@H]1C(=O)NCCNc1ccc([N+](=O)[O-])cc1 [Compound 42, PEG12-CitAP-AENA] | – | –
7 | 3.3 | 7.1 | 11.8 | 13.5 | 44.2 | 7.0 | NAG(OAc)3-ACitAP- AENA [Compound 37] | – | –

From patent US10005815B2, “Biologically cleavable tetrapeptide linking agents” (Arrowhead Madison Inc., priority 2015, dated 2018)
